Measured values published in patent publication US20250171498A1, “ANTIBIOTIC COMPOUNDS, FORMULATIONS AND METHODS OF USE” (UNIVERSITEIT LEIDEN, priority 2022, published 2025).
In brackets after ≈: the same amount, converted by molar mass. *1 amine or outer side, *2 acyl side, *3 side chain or, on linkers, in order; H or OH if unused. Where a SMILES comes first, the peptide text is derived from it. Bridges are numbered along the chain shown (N, C = ends). [ ]: non-standard residue; d: D form. The star is where a group is joined. X1 = CC(C)CCCCC[C@@H](N[*:1])C(=O)[*:2]; S(2-cyclohexylethyl) = C1CCC(CCS*)CC1; S(3-Cl-benzyl) = Clc1cccc(CS*)c1; dPen = CC(C)(S)[C@@H](N)C(=O)O; S(3-Methylbutyl) = CC(C)CCS*; dDab = NCC[C@@H](N)C(=O)O; Dab = NCC[C@H](N)C(=O)O; Dap = NC[C@H](N)C(=O)O

Experiments:
Type in all cases: cell-based
[1] = test system: renal Proximal Tubular Epithelial Cells (PTECs); assay: Toxicity on renal Proximal Tubular Epithelial Cells
Experimental: (§1) Compounds were prepared according to scheme 2, 3, 4, 6, 7, or 8 above, preparing different sets of compounds with different substitution patterns. All polymyxin analogues prepared were tested for their anti-bacterial activity on relevant Gram-negative strains (Table B). Polymyxin B and PMBN were taken along as references. In addition, the toxicity on renal Proximal Tubular Epithelial Cells (PTECs) was evaluated.
(§2) 3rd Generation compounds were also subjected to testing for their anti-bacterial activity on relevant Gram-negative strains (Table C). Polymyxin B and PMBN were taken along as references. In addition, the toxicity on renal Proximal Tubular Epithelial Cells (PTECs) was evaluated, see Table C.

[2] = test system: K. Pneumoniae (ATCC 13883); details: ATCC 13883
Experimental: as §1, §2

[3] = test system: A. Baumanni (ATCC 19606); details: ATCC 19606
Experimental: as §1, §2

[4] = test system: P. Aeruginosa (ATCC 27853); details: ATCC 27853
Experimental: as §1, §2

[5] = test system: E. Coli (ATCC 25922); details: ATCC 25922
Experimental: as §1, §2

Row | SMILES | PTEC Toxicity (relative to polymyxin B) [1] | MIC K. Pneumoniae (ATCC 13883) [2] | MIC A. Baumanni (ATCC 19606) [3] | MIC P. Aeruginosa (ATCC 27853) [4] | MIC E. Coli (ATCC 25922) [5]
1 | CC(C)C[C@@H]1NC(=O)[C@@H](Cc2ccccc2)NC(=O)[C@H](CCN)NC(=O)[C@@H](NC(=O)[C@@H](CO)NC(=O)[C@@H](NC(=O)[C@H](N)CSSCCC2CCCCC2)[C@@H](C)O)CCNC(=O)[C@H]([C@@H](C)O)NC(=O)[C@H](CCN)NC(=O)[C@H](CCN)NC1=O (H-[dC](S(2-cyclohexylethyl))T[dS][Dab][Dab][dF]L[Dab][Dab]T; lactam 4-C) | 3.3 | 1 µg/mL (≈ 0.836 µM) | 0.25 µg/mL (≈ 0.209 µM) | 4 µg/mL (≈ 3.35 µM) | 2 µg/mL (≈ 1.67 µM)
2 | CC(C)C[C@@H]1NC(=O)[C@@H](Cc2ccccc2)NC(=O)[C@H](CCN)NC(=O)[C@@H](NC(=O)[C@H](CN)NC(=O)[C@@H](NC(=O)[C@H](N)CSSCCC2CCCCC2)[C@@H](C)O)CCNC(=O)[C@H]([C@@H](C)O)NC(=O)[C@H](CCN)NC(=O)[C@H](CCN)NC1=O (H-[dC](S(2-cyclohexylethyl))T[Dap][Dab][Dab][dF]L[Dab][Dab]T; lactam 4-C) | 2.9 | 1 µg/mL (≈ 0.837 µM) | 0.5 µg/mL (≈ 0.419 µM) | 2 µg/mL (≈ 1.67 µM) | 1 µg/mL (≈ 0.837 µM)
3 | CC(C)CCSSC(C)(C)[C@@H](N)C(=O)N[C@H](C(=O)N[C@@H](CN)C(=O)N[C@H]1CCNC(=O)[C@H]([C@@H](C)O)NC(=O)[C@H](CCN)NC(=O)[C@H](CCN)NC(=O)[C@H](CC(C)C)NC(=O)[C@@H](CC(C)C)NC(=O)[C@H](CCN)NC1=O)[C@@H](C)O (H-[dPen](S(3-Methylbutyl))T[Dap][Dab][Dab][dL]L[Dab][Dab]T; lactam 4-C) | – | 1 µg/mL (≈ 0.871 µM) | 2 µg/mL (≈ 1.74 µM) | 2 µg/mL (≈ 1.74 µM) | 2 µg/mL (≈ 1.74 µM)
4 | CC(C)C[C@@H]1NC(=O)[C@@H](Cc2ccccc2)NC(=O)[C@H](CCN)NC(=O)[C@@H](NC(=O)[C@H](CCN)NC(=O)[C@@H](NC(=O)[C@H](N)CSSCCC2CCCCC2)[C@@H](C)O)CCNC(=O)[C@H]([C@@H](C)O)NC(=O)[C@H](CCN)NC(=O)[C@H](CCN)NC1=O [drawing 128] (H-[dC](S(2-cyclohexylethyl))T[Dab][Dab][Dab][dF]L[Dab][Dab]T; lactam 4-C) | 1.2 | – | 0.5 µg/mL (≈ 0.414 µM) | 2 µg/mL (≈ 1.65 µM) | 1 µg/mL (≈ 0.827 µM)
5 | CC(C)C[C@@H]1NC(=O)[C@@H](Cc2ccccc2)NC(=O)[C@H](CCN)NC(=O)[C@@H](NC(=O)CNC(=O)[C@@H](NC(=O)[C@H](N)CSSCc2cccc(Cl)c2)[C@@H](C)O)CCNC(=O)[C@H]([C@@H](C)O)NC(=O)[C@H](CCN)NC(=O)[C@H](CCN)NC1=O (H-[dC](S(3-Cl-benzyl))TG[Dab][Dab][dF]L[Dab][Dab]T; lactam 4-C) | 7.4 | 1 µg/mL (≈ 0.848 µM) | 1 µg/mL (≈ 0.848 µM) | 4 µg/mL (≈ 3.39 µM) | 2 µg/mL (≈ 1.7 µM)
6 | CC(C)CCSSC[C@@H](N)C(=O)N[C@H](C(=O)N[C@H](CCN)C(=O)N[C@H]1CCNC(=O)[C@H]([C@@H](C)O)NC(=O)[C@H](CCN)NC(=O)[C@H](CCN)NC(=O)[C@H](CC(C)C)NC(=O)[C@@H](Cc2ccccc2)NC(=O)[C@H](CCN)NC1=O)[C@@H](C)O (H-[dC](S(3-Methylbutyl))T[dDab][Dab][Dab][dF]L[Dab][Dab]T; lactam 4-C) | 7.1 | 0.5 µg/mL (≈ 0.428 µM) | 0.25 µg/mL (≈ 0.214 µM) | 1 µg/mL (≈ 0.856 µM) | 2 µg/mL (≈ 1.71 µM)
7 | CC(C)C[C@@H]1NC(=O)[C@@H](Cc2ccccc2)NC(=O)[C@H](CCN)NC(=O)[C@@H](NC(=O)[C@@H](CCN)NC(=O)[C@@H](NC(=O)[C@H](N)CSSCCC2CCCCC2)[C@@H](C)O)CCNC(=O)[C@H]([C@@H](C)O)NC(=O)[C@H](CCN)NC(=O)[C@H](CCN)NC1=O (H-[dC](S(2-cyclohexylethyl))T[dDab][Dab][Dab][dF]L[Dab][Dab]T; lactam 4-C) | 4.8 | 1 µg/mL (≈ 0.827 µM) | 0.5 µg/mL (≈ 0.414 µM) | 2 µg/mL (≈ 1.65 µM) | 2 µg/mL (≈ 1.65 µM)
8 | CC(C)CCSSC[C@@H](N)C(=O)N[C@H](C(=O)N[C@@H](CN)C(=O)N[C@H]1CCNC(=O)[C@H]([C@@H](C)O)NC(=O)[C@H](CCN)NC(=O)[C@H](CCN)NC(=O)[C@H](CC(C)C)NC(=O)[C@@H](Cc2ccccc2)NC(=O)[C@H](CCN)NC1=O)[C@@H](C)O (H-[dC](S(3-Methylbutyl))T[Dap][Dab][Dab][dF]L[Dab][Dab]T; lactam 4-C) | 20.1 | 0.25 µg/mL (≈ 0.217 µM) | 0.25 µg/mL (≈ 0.217 µM) | 1 µg/mL (≈ 0.866 µM) | 1 µg/mL (≈ 0.866 µM)
9 | CC(C)CCSSC(C)(C)[C@@H](N)C(=O)N[C@H](C(=O)N[C@@H](CCN)C(=O)N[C@H]1CCNC(=O)[C@H]([C@@H](C)O)NC(=O)[C@H](CCN)NC(=O)[C@H](CCN)NC(=O)[C@H](CC(C)C)NC(=O)[C@@H](CC(C)C)NC(=O)[C@H](CCN)NC1=O)[C@@H](C)O (H-[dPen](S(3-Methylbutyl))T[Dab][Dab][Dab][dL]L[Dab][Dab]T; lactam 4-C) | – | 2 µg/mL (≈ 1.72 µM) | 4 µg/mL (≈ 3.44 µM) | 2 µg/mL (≈ 1.72 µM) | 2 µg/mL (≈ 1.72 µM)
10 | CC(C)CCCCC[C@@H](N)C(=O)N[C@H](C(=O)N[C@@H](CN)C(=O)N[C@H]1CCNC(=O)[C@H]([C@@H](C)O)NC(=O)[C@H](CCN)NC(=O)[C@H](CCN)NC(=O)[C@H](CC(C)C)NC(=O)[C@@H](Cc2ccccc2)NC(=O)[C@H](CCN)NC1=O)[C@@H](C)O (H-[X1]T[Dap][Dab][Dab][dF]L[Dab][Dab]T; lactam 4-C) | 7.8 | 0.25 µg/mL (≈ 0.224 µM) | 0.25 µg/mL (≈ 0.224 µM) | 1 µg/mL (≈ 0.894 µM) | 1 µg/mL (≈ 0.894 µM)
11 | CC(C)C[C@@H]1NC(=O)[C@@H](Cc2ccccc2)NC(=O)[C@H](CCN)NC(=O)[C@@H](NC(=O)[C@H](CN)NC(=O)[C@@H](NC(=O)[C@H](N)CSSCc2cccc(Cl)c2)[C@@H](C)O)CCNC(=O)[C@H]([C@@H](C)O)NC(=O)[C@H](CCN)NC(=O)[C@H](CCN)NC1=O (H-[dC](S(3-Cl-benzyl))T[Dap][Dab][Dab][dF]L[Dab][Dab]T; lactam 4-C) | 4.8 | 0.5 µg/mL (≈ 0.414 µM) | 0.5 µg/mL (≈ 0.414 µM) | 4 µg/mL (≈ 3.31 µM) | 2 µg/mL (≈ 1.65 µM)
12 | CC(C)CCSSC[C@@H](N)C(=O)N[C@H](C(=O)NCC(=O)N[C@H]1CCNC(=O)[C@H]([C@@H](C)O)NC(=O)[C@H](CCN)NC(=O)[C@H](CCN)NC(=O)[C@H](CC(C)C)NC(=O)[C@@H](Cc2ccccc2)NC(=O)[C@H](CCN)NC1=O)[C@@H](C)O (H-[dC](S(3-Methylbutyl))TG[Dab][Dab][dF]L[Dab][Dab]T; lactam 4-C) | 26.8 | 0.5 µg/mL (≈ 0.444 µM) | 0.5 µg/mL (≈ 0.444 µM) | 4 µg/mL (≈ 3.55 µM) | 2 µg/mL (≈ 1.78 µM)
13 | CC(C)CCSSC(C)(C)[C@@H](N)C(=O)N[C@H](C(=O)N[C@@H](CCN)C(=O)N[C@H]1CCNC(=O)[C@H]([C@@H](C)O)NC(=O)[C@H](CCN)NC(=O)[C@H](CCN)NC(=O)[C@H](CC(C)C)NC(=O)[C@@H](Cc2ccccc2)NC(=O)[C@H](CCN)NC1=O)[C@@H](C)O (H-[dPen](S(3-Methylbutyl))T[Dab][Dab][Dab][dF]L[Dab][Dab]T; lactam 4-C) | – | 2 µg/mL (≈ 1.67 µM) | 4 µg/mL (≈ 3.34 µM) | 2 µg/mL (≈ 1.67 µM) | 2 µg/mL (≈ 1.67 µM)
14 | CC(C)CCSSC(C)(C)[C@@H](N)C(=O)N[C@H](C(=O)N[C@@H](CN)C(=O)N[C@H]1CCNC(=O)[C@H]([C@@H](C)O)NC(=O)[C@H](CCN)NC(=O)[C@H](CCN)NC(=O)[C@H](CC(C)C)NC(=O)[C@@H](Cc2ccccc2)NC(=O)[C@H](CCN)NC1=O)[C@@H](C)O (H-[dPen](S(3-Methylbutyl))T[Dap][Dab][Dab][dF]L[Dab][Dab]T; lactam 4-C) | – | 1 µg/mL (≈ 0.846 µM) | 1 µg/mL (≈ 0.846 µM) | 2 µg/mL (≈ 1.69 µM) | 2 µg/mL (≈ 1.69 µM)
